{
  "source": "patent US20250073219A1",
  "about": "“NEW COMPOSITION COMPRISING IMMUNOMODULATORY DRUG” (NANEXA AB, priority 2021, published 2025)",
  "origin": "cited, not measured here",
  "conditions": "oral, about 25 mg once daily, plasma; cited from earlier work",
  "data": [
    {"smiles": "Nc1cccc2c1CN(C1CCC(=O)NC1=O)C2=O", "note": "(stereo not drawn) [lenalidomide, 3-(4-amino-1-3-dihydro-l-ovo-2H-isoindol-2yl)-2,6-piperidinedione]", "values": [
      {"measurement": "Cmax obtained from a dosing regimen comprising orally administering an about 25 mg dose once daily", "value": "about 568 ng/ml"}
    ]}
  ]
}
